Results on 76 compounds are retold here after patent US5872138A, “Thrombin inhibitors” (Merck & Co., Inc., priority 1997, dated 1999).

Where a name gives a salt, the structure may show the parent alone.

For orientation: Ki means the equilibrium dissociation constant of an inhibitor or competing ligand from its target.

For the first assay, the target named is T1, human a-thrombin (Homo sapiens, UniProt P00734).
T1 construct: human a-thrombin
The assay is described as follows: In vitro assay for determining proteinase inhibition (thrombin Ki). In kind it is biochemical. Conditions: Table 2; 25° C., pH 7.4; read-out: Ki (thr). Here is the method: In vitro assay for determining proteinase inhibition Assays of human a-thrombin and human trypsin were performed at 25° C. in 0.05M TRIS buffer pH 7.4, 0.15M NaCl, 0.1% PEG. Trypsin assays also contained 1 mM CaCl2. In assays wherein rates of hydrolysis of a p-nitroanilide (pna) substrate were determined, a Thermomax 96-well plate reader was used to measure (at 405 nm) the time dependent appearance of p-nitroaniline. […] Activity assays were performed by diluting a stock solution of substrate at least tenfold to a final concentration 0.5 Km into a solution containing enzyme or enzyme equilibrated with inhibitor. Times required to achieve equilibration between enzyme and inhibitor were determined in control experiments. Initial velocities of product formation in the absence (Vo) or presence of inhibitor (Vi) were measured. Assuming competitive inhibition, and that unity is negligible compared Km /[S], […] (where [S], [I], and e respectively represent the total concentrations, of substrate, inhibitor and enzyme), the equilibrium constant (Ki) for dissociation of the inhibitor from the enzyme can be obtained from the dependence of Vo /Vi on [I] shown in equation 1.
As to `c1ccc(CNc2ccc(CNc3ccncc3)cc2)cc1`, the Ki is greater than 1000 nM.

For `c1ccc(C(COc2ccc(CNc3ccncc3)cc2)c2ccccc2)cc1` [4-[4-(2,2-diphenylethoxy)benzylamino]pyridine], the Ki was greater than 1000 nM.

As to `c1ccc(CSc2ccc(CNc3ccncc3)cc2)cc1`, the Ki was greater than 1000 nM.

Regarding `c1cc(NCc2ccc(OCCC3CCCCC3)cc2)ccn1` [4-[4-(2-cyclohexylethoxy)benzylamino]pyridine], the inhibition constant (Ki) is greater than 1000 nM.

Consider `c1ccc(CC(Cc2ccccc2)Oc2ccc(CNc3ccncc3)cc2)cc1` [4-[4-(1,3-diphenyl-2-propoxy)benzylamino]pyridine], for which the inhibition constant Ki is greater than 1000 nM.

Turning to `c1ccc(COc2ccc(CNc3ccncc3)cc2)cc1` [N-4-(4-benzyloxybenzyl)aminopyridine], the inhibition constant Ki was greater than 1000 nM.

Regarding `c1cc(NCc2ccc(OCC3CCCCC3)cc2)ccn1` [N-4-(cyclohexylmethoxy)benzylaminopyridine], the Ki is greater than 1000 nM.

Consider `c1cc(NCc2ccc(OC(C3CCCCC3)C3CC3)cc2)ccn1` (stereo not shown), for which the Ki is 100 to 1000 nM.

Consider `c1cc(NCc2ccc(OCc3ccc4c(c3)OCO4)cc2)ccn1` [4-[4-(3,4-methylenedioxybenzyloxy)benzylamino]pyridine], for which the Ki was greater than 1000 nM.

For the compound `c1cc(NCc2ccc(OC(C3CCCCC3)C3CCCCC3)cc2)ccn1` [4-[4-(dicyclohexylmethoxy)-benzylamino]pyridine], the inhibition constant (Ki) is greater than 1000 nM.

`c1ccc(C(Oc2ccc(CNc3ccncc3)cc2)C2CCCCC2)cc1` (stereo not shown): the inhibition constant Ki is greater than 1000 nM.

`CCC(Oc1ccc(CNc2ccncc2)cc1)c1ccccc1` (stereo not shown): the inhibitory constant (Ki) is greater than 1000 nM.

With `COC(=O)C(Oc1ccc(CNc2ccncc2)cc1)c1ccccc1` (stereo not shown), the Ki is greater than 1000 nM.

Consider `NC(=O)C(Oc1ccc(CNc2ccncc2)cc1)c1ccccc1` (stereo not shown), for which the Ki is greater than 1000 nM.

Turning to `CC(Oc1ccc(CNc2ccncc2)cc1)c1ccccc1` (stereo not shown), the Ki was greater than 1000 nM.

Consider `CC(C)C(Oc1ccc(CNc2ccncc2)cc1)c1ccccc1` (stereo not shown) [4-[4-(2-methyl-1-phenylpropoxy)benzylamino]pyridine], for which the Ki is greater than 1000 nM.

In the case of `c1cc(NCc2ccc(NCC3CCCCC3)cc2)ccn1`, the Ki is greater than 1000 nM.

As for `c1cc(NCc2ccc(OCC(C3CCCCC3)C3CCCCC3)cc2)ccn1`, the inhibition constant (Ki) is greater than 1000 nM.

Still in this assay, the particulars now being: Table 3; 25° C., pH 7.4; read-out: Ki(th).
For `c1cc(NCc2ccc(OCC3CCCCC3)c(C3CC3)c2)ccn1`, the Ki came to 3200 nM.

Consider `CCCc1cc(CNc2ccncc2)ccc1OCc1ccccc1`, for which the Ki is 1800 nM.

With `CCCc1cc(CNc2ccncc2)ccc1OC(c1ccccc1)C1CC1` (stereo not shown), the inhibitory constant (Ki) was determined as 800 nM.

For the compound `c1ccc(-c2cc(OCC3CCCCC3)ccc2CNc2ccncc2)cc1`, the Ki was 6400 nM.

`CCCc1cc(CNc2ccncc2)ccc1OC(c1ccccc1)c1ccccc1`: the Ki came out at 320 nM.

Take `c1ccc(Cc2cc(OCC3CCCCC3)ccc2CNc2ccncc2)cc1` [4'-(4-cyclohexylmethyloxy-2-benzylphenylmethyl)-aminopyridine]: the inhibition constant Ki amounted to 1800 nM.

`CCc1cc(CNc2ccncc2)ccc1OCC1CCCCC1` [4-{[3-ethyl-4-(cyclohexylmethyloxy)phenyl]methylamino}pyridine]: the Ki turned out to be 640 nM.

With `Oc1cc(OCC2CCCCC2)ccc1CNc1ccncc1`, the inhibition constant (Ki) amounted to 1600 nM.

Regarding `OCCc1cc(CNc2ccncc2)ccc1OCC1CCCCC1`, the Ki amounted to 4400 nM.

Regarding `c1ccc(COc2cc(OCC3CCCCC3)ccc2CNc2ccncc2)cc1` [4-(4-cyclohexylmethyloxy-2-benzyloxybenzyl)aminopyridine], the Ki was 1800 nM.

In the case of `CCCc1cc(CNc2ccncc2)ccc1OCc1ccc(OC)cc1`, the inhibition constant (Ki) was 1800 nM.

Consider `CCCc1cc(CNc2ccncc2)ccc1OC(Cc1ccccc1)C1CC1` (stereo not shown), for which the inhibition constant (Ki) was 1300 nM.

For the compound `Nc1cc(CNc2ccncc2)ccc1OCC1CCCCC1` [4-{[3-amino-4-(cyclohexylmethyloxy)phenyl]methylamino}pyridine dihydrochloride], the Ki is 2900 nM.

For the compound `CCCc1cc(CNc2ccncc2)ccc1OCC1CCCCC1` [4-{[3-propyl-4-(cyclohexylmethyloxy)phenyl]methylamino}pyridine], the Ki came out at 500 nM.

`CC(C)Cc1cc(CNc2ccncc2)ccc1OCC1CCCCC1`: the Ki came to 1500 nM.

Regarding `CCCc1cc(CNc2ccncc2)ccc1OCC1CCCCCC1`, the Ki was 740 nM.

For the compound `CCCc1cc(CNc2ccncc2)c(Cc2ccccc2)cc1OCC1CCCCC1`, the inhibition constant (Ki) is greater than 900 nM.

Take `COc1cc(OCC2CCCCC2)ccc1CNc1ccncc1`: the Ki stood at 3200 nM.

For the compound `CC(C)CCc1cc(CNc2ccncc2)ccc1OCC1CCCCC1` [drawing 160], the Ki turned out to be 3200 nM.

With `CCCc1cc(CNc2ccncc2)cc(CO)c1OCC1CCCCC1`, the inhibition constant (Ki) was found to be 3800 nM.

With `C=Cc1cc(CNc2ccncc2)ccc1OCC1CCCCC1`, the inhibition constant Ki stood at 260 nM.

`CCCc1cc(CNc2ccncc2)ccc1OCC12CC3CC(CC(C3)C1)C2`: the Ki turned out to be 220 nM.

As for `CCCc1cc(CNc2ccncc2)ccc1OC(Cc1ccccc1)C(C)C` (stereo not shown), the inhibition constant Ki turned out to be 500 nM.

The assay is the same for the next values; noted with them: Table 4; 25° C., pH 7.4; read-out: Ki (thr).
On to `CCCc1cc(CNc2ccncc2)ccc1OCCC(C)C` [i-butyl], for which the inhibition constant Ki lay in the range of 1000 to 10000 nM.

With `CC(C)(C)OCCc1cc(CNc2ccncc2)ccc1OCC1CCCCC1`, the Ki was greater than 10000 nM.

On to `CNC(=O)c1cc(CNc2ccncc2)ccc1OCC1CCCCC1`, for which the Ki is greater than 10000 nM.

Take `c1ccc(-c2cc(CNc3ccncc3)ccc2OCC2CCCCC2)cc1`: the Ki is greater than 10000 nM.

For `CCCc1cc(CNc2ccncc2)cc(CN2CCCCC2)c1OCC1CCCCC1`, the inhibition constant Ki lay in the range of 1000 to 10000 nM.

`CCCc1cc(CNc2ccncc2)ccc1OCC1CC2C=CC1C2` (stereo not shown): the Ki fell in the range of 100 to 1000 nM.

With `CCCc1cc(CNc2ccncc2C)ccc1OCC1CCCCC1`, the Ki was 1000 to 10000 nM.

Take `CC(C)CCc1cc(CNc2ccncc2)ccc1OCC1CCCCC1` [drawing 174]: the Ki is 1000 to 10000 nM.

With `CCCc1cc(CN(CC)c2ccncc2)ccc1OCC1CCCCC1`, the Ki was greater than 10000 nM.

Consider `CNCc1cc(CNc2ccncc2)ccc1OCC1CCCCC1`, for which the Ki lay within 1000 to 10000 nM.

For `NCc1cc(CNc2ccncc2)ccc1OCC1CCCCC1`, the Ki is greater than 10000 nM.

Take `OCc1cc(CNc2ccncc2)ccc1OCC1CCCCC1`: the Ki was greater than 10000 nM.

Take `CCCc1cc(CNc2ccncc2)ccc1OCc1cccc2ccccc12`: the Ki lay within 1000 to 10000 nM.

Still in this assay, the particulars now being: Table 5; 25° C., pH 7.4; read-out: Ki(thr).
Take `CCc1cc(S(=O)(=O)N2CCN(C(=N)N)CC2)ccc1OCC1CCCCC1` [N-((4-cyclohexylmethyloxy)-3-ethyl-phenylsulfonyl)-N'-aminomethyliminopiperazine]: the inhibitory constant (Ki) lay within 100 to 1000 nM.

With `N=C(N)N1CCN(S(=O)(=O)c2ccc(OCc3ccccc3)cc2)CC1` [N-((4-benzyloxy)phenylsulfonyl)-N'-aminomethyliminopiperazine], the inhibitory constant (Ki) fell in the range of 1000 to 10000 nM.

The assay is the same for the next values; noted with them: Table 6; 25° C., pH 7.4; read-out: Ki(thr).
Consider `N=C(N)c1ccc(Cc2ccc(OCC3CCCCC3)cc2)cc1` [4-{[4-(Cyclohexylmethyloxy)phenyl]methyl}-benzamidine hydrochloride], for which the Ki was found to be 170 nM.

As to `CCCc1cc(Cc2ccc(C(=N)N)cc2)ccc1OCC1CCCCC1`, the Ki was 300 nM.

As for `CCc1cc(Cc2ccc(C(=N)N)cc2)ccc1OCC1CCCCC1`, the inhibitory constant (Ki) is 77 nM.

Take `CCCc1cc(Cc2ccc(C(=N)N)cc2)ccc1OC(C(C)C)C1CCCCC1` (stereo not shown): the Ki came to 280 nM.

In the case of `Cc1cc(Cc2ccc(C(=N)N)cc2)ccc1OCC1CCCCC1`, the Ki stood at 102 nM.

`Cc1cc(Cc2ccc(C(=N)N)cc2)ccc1OC(C(C)C)C1CCCCC1` (stereo not shown): the Ki came to 20 nM.

With `N=C(N)c1ccc(Cc2ccc(OCc3ccccc3)cc2)cc1` [4-{[4-(Phenylmethyloxy)phenyl]methyl}benzamidine hydrochloride], the Ki amounted to 390 nM.

As for `CCc1cc(Cc2ccc(C(=N)N)cc2)ccc1OC(C(C)C)C1CCCCC1` (stereo not shown), the inhibition constant (Ki) came out at 20 nM.

The same assay, now with this note: Table 7; 25° C., pH 7.4; read-out: Ki(thr).
`c1cc(NCc2ccc(CCC3CCCCC3)cc2)ccn1`: the Ki fell in the range of 1000 to 10000 nM.

Consider `c1ccc(OCc2ccc(CNc3ccncc3)cc2)cc1`, for which the Ki fell in the range of 1000 to 10000 nM.

The same assay, now with this note: Table I; 25° C., pH 7.4; read-out: Ki (thr).
With `COc1cc(C[n+]2ccc(N)cc2)ccc1OCc1ccccc1`, the Ki is greater than 1000 nM.

With `Nc1cc[n+](Cc2ccc(OCc3ccccc3)c(OCc3ccccc3)c2)cc1`, the inhibitory constant (Ki) was greater than 1000 nM.

Turning to `Nc1cc[n+](Cc2ccc(OCC(C3CCCCC3)C3CCCCC3)cc2)cc1` [4-amino-1-(4-(2,2-dicyclohexyl-1-ethoxy)benzyl)pyridinium bromide], the Ki was 100 to 1000 nM.

Turning to `Nc1cc[n+](Cc2ccc(OC(CCc3ccccc3)c3ccccc3)cc2)cc1` (stereo not shown) [4-amino-1-[4-(1,3-diphenyl-1-propoxy)benzyl]pyridinium bromide], the Ki fell in the range of 100 to 1000 nM.

Regarding `Nc1cc[n+](Cc2ccc(-c3ccccc3)cc2)cc1`, the Ki is greater than 1000 nM.

In the case of `Nc1cc[n+](Cc2ccc(OCc3ccccc3)nc2)cc1`, the Ki is greater than 1000 nM.

For the compound `Nc1cc[n+](Cc2ccc(OC(c3ccccc3)c3ccccc3)cc2)cc1` [4-amino-1-(4-(1,1-diphenylmethoxy)benzylpyridinium bromide], the Ki was less than 100 nM.

`Nc1cc[n+](Cc2ccc(OCC(c3ccccc3)c3ccccc3)cc2)cc1` [4-amino-1-[4-(2,2-diphenylethoxy)benzyl]pyridinium bromide]: the Ki is 100 to 1000 nM.

Turning to `Nc1cc[n+](Cc2ccc(OCc3ccccc3)cc2)cc1`, the inhibition constant Ki is 100 to 1000 nM.

For the compound “4-amino-1-(4-(1-phenyl-1-carbomethoxy)methoxybenzyl)pyridinium bromide”, the inhibition constant (Ki) lay in the range of 100 to 1000 nM.
